In brackets after ≈: the same amount, converted by molar mass.
Experiments:
Format in all cases: cell-based
B. subtilis ATCC 6633 = experiment: MIC by agar dilution, B. subtilis ATCC 6633; settings: Bacillus subtilis, ATCC6633, 17 h; B. subtilis ATCC 6633; agar dilution, Mueller-Hinton agar; read-out: Minimal Inhibitory Concentration (MIC)
How it was run: (§1)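 MIC is the endpoint, obtained by agar dilution after 17±1 hours at 35°-37° C. on Mueller-Hinton agar containing doubling compound concentrations; strains inoculated at 10^6 CFU per ml.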

Staph. aureus ATCC 6538P = experiment: MIC by agar dilution, Staph. aureus ATCC 6538P; settings: Staphylococcus aureus, ATCC6538P, 17 h; Staph. aureus ATCC 6538P; agar dilution, Mueller-Hinton agar; read-out: Minimal Inhibitory Concentration (MIC)
How it was run: as §1

Staph. aureus Smith = experiment: MIC by agar dilution, Staph. aureus Smith; settings: Staphylococcus aureus, 17 h, Mueller-Hinton agar, read-out: Minimal Inhibitory Concentration (MIC)
How it was run: as §1

Staph. aureus C-57 = experiment: MIC by agar dilution, Staph. aureus C-57; settings: Staphylococcus aureus, C57, 17 h, Mueller-Hinton agar, read-out: Minimal Inhibitory Concentration (MIC)
How it was run: as §1

Staph. aureus C-5113 = experiment: MIC by agar dilution, Staph. aureus C-5113; settings: Staphylococcus aureus, C5113, 17 h, Mueller-Hinton agar, read-out: Minimal Inhibitory Concentration (MIC)
How it was run: as §1

Staph. aureus C-5216 = experiment: MIC by agar dilution, Staph. aureus C-5216; settings: Staphylococcus aureus, C5216, 17 h, Mueller-Hinton agar, read-out: Minimal Inhibitory Concentration (MIC)
How it was run: as §1

[1] = tested on: S. epidermidis ATCC 12228; experiment: MIC by agar dilution, S. epidermidis ATCC 12228; settings: Staphylococcus epidermidis, ATCC12228, 17 h; S. epidermidis ATCC 12228; agar dilution, Mueller-Hinton agar; read-out: Minimal Inhibitory Concentration (MIC)
How it was run: as §1

Ent. aerogenes IFO 12979 = experiment: MIC by agar dilution, Ent. aerogenes IFO 12979; settings: Klebsiella aerogenes, IFO12979, 17 h, Mueller-Hinton agar, read-out: Minimal Inhibitory Concentration (MIC)
How it was run: as §1

Ent. cloacae IFO 13535 = experiment: MIC by agar dilution, Ent. cloacae IFO 13535; settings: Enterobacter cloacae, IFO13535, 17 h; Ent. cloacae IFO 13535; agar dilution, Mueller-Hinton agar; read-out: Minimal Inhibitory Concentration (MIC)
How it was run: as §1

E. coli NIHJ JC-2 = experiment: MIC by agar dilution, E. coli NIHJ JC-2; settings: Escherichia coli, NIHJJC2, 17 h; E. coli NIHJ JC-2; agar dilution, Mueller-Hinton agar; read-out: Minimal Inhibitory Concentration (MIC)
How it was run: as §1

E. coli No. 29 = experiment: MIC by agar dilution, E. coli No. 29; settings: Escherichia coli, 17 h; E. coli No. 29; agar dilution, Mueller-Hinton agar; read-out: Minimal Inhibitory Concentration (MIC)
How it was run: as §1

E. coli DY-1 = experiment: MIC by agar dilution, E. coli DY-1; settings: Escherichia coli, DY1, 17 h; E. coli DY-1; agar dilution, Mueller-Hinton agar; read-out: Minimal Inhibitory Concentration (MIC)
How it was run: as §1

K. pneumoniae NCTC 9632 = experiment: MIC by agar dilution, K. pneumoniae NCTC 9632; settings: Klebsiella pneumoniae, NCTC9632, 17 h; K. pneumoniae NCTC 9632; agar dilution, Mueller-Hinton agar; read-out: Minimal Inhibitory Concentration (MIC)
How it was run: as §1

M. morganii DY-1 = experiment: MIC by agar dilution, M. morganii DY-1; settings: Morganella morganii, DY1, 17 h; M. morganii DY-1; agar dilution, Mueller-Hinton agar; read-out: Minimal Inhibitory Concentration (MIC)
How it was run: as §1

[2] = tested on: Ps. aeruginosa ATCC 10145; experiment: MIC by agar dilution, Ps. aeruginosa ATCC 10145; settings: Pseudomonas aeruginosa, ATCC10145, 17 h, Mueller-Hinton agar, read-out: Minimal Inhibitory Concentration (MIC)
How it was run: as §1

[3] = tested on: Ps. aeruginosa NCTC 10490; experiment: MIC by agar dilution, Ps. aeruginosa NCTC 10490; settings: Pseudomonas aeruginosa, NCTC10490, 17 h, Mueller-Hinton agar, read-out: Minimal Inhibitory Concentration (MIC)
How it was run: as §1

Ps. aeruginosa DY-2 = experiment: MIC by agar dilution, Ps. aeruginosa DY-2; settings: Pseudomonas aeruginosa, DY2, 17 h; Ps. aeruginosa DY-2; agar dilution, Mueller-Hinton agar; read-out: Minimal Inhibitory Concentration (MIC)
How it was run: as §1

P. vulgaris NCTC 8313 = experiment: MIC by agar dilution, P. vulgaris NCTC 8313; settings: Proteus vulgaris, NCTC8313, 17 h; P. vulgaris NCTC 8313; agar dilution, Mueller-Hinton agar; read-out: Minimal Inhibitory Concentration (MIC)
How it was run: as §1

Prov. stuartii IFO 12930 = experiment: MIC by agar dilution, Prov. stuartii IFO 12930; settings: Providencia stuartii, IFO12930, 17 h, Mueller-Hinton agar, read-out: Minimal Inhibitory Concentration (MIC)
How it was run: as §1

[4] = tested on: Ser. marcescens IFO 12648; experiment: MIC by agar dilution, Ser. marcescens IFO 12648; settings: Serratia marcescens, IFO12648, 17 h; Ser. marcescens IFO 12648; agar dilution, Mueller-Hinton agar; read-out: Minimal Inhibitory Concentration (MIC)
How it was run: as §1

SMILES | MIC (B. subtilis ATCC 6633) | MIC (Staph. aureus ATCC 6538P) | MIC (Staph. aureus Smith) | MIC (Staph. aureus C-57) | MIC (Staph. aureus C-5113) | MIC (Staph. aureus C-5216) | MIC [1] | MIC (Ent. aerogenes IFO 12979) | MIC (Ent. cloacae IFO 13535) | MIC (E. coli NIHJ JC-2) | MIC (E. coli No. 29) | MIC (E. coli DY-1) | MIC (K. pneumoniae NCTC 9632) | MIC (M. morganii DY-1) | MIC [2] | MIC [3] | MIC (Ps. aeruginosa DY-2) | MIC (P. vulgaris NCTC 8313) | MIC (Prov. stuartii IFO 12930) | MIC [4]
CON=C(C(=O)NC1C(=O)N2C(C(=O)[O-])=C(C[n+]3ccn4c(C(N)=O)ccc4c3)CSC12)c1csc(N)n1 (stereo not drawn) [Ex. 15, 7-β-[(Z)-2-(2-aminothiazol-4-yl)-2-methoxyiminoacetamido]-3-(6-carbamoylpyrrolo[1,2-a]pyrazinium-2-yl)methyl-3-cephem-4-carboxylate] | 0.05 µg/mL (≈ 0.0898 µM) | 0.2 µg/mL (≈ 0.359 µM) | 0.39 µg/mL (≈ 0.701 µM) | 12.5 µg/mL (≈ 22.5 µM) | 0.78 µg/mL (≈ 1.4 µM) | 0.78 µg/mL (≈ 1.4 µM) | 0.025 µg/mL (≈ 0.0449 µM) | ≤ 0.006 µg/mL | 0.1 µg/mL (≈ 0.18 µM) | ≤ 0.006 µg/mL | ≤ 0.006 µg/mL | ≤ 0.006 µg/mL | ≤ 0.006 µg/mL | ≤ 0.006 µg/mL | 0.39 µg/mL (≈ 0.701 µM) | 0.1 µg/mL (≈ 0.18 µM) | 3.13 µg/mL (≈ 5.62 µM) | 0.012 µg/mL (≈ 0.0216 µM) | ≤ 0.006 µg/mL | 0.012 µg/mL (≈ 0.0216 µM)
CCO/N=C(\C(=O)N[C@@H]1C(=O)N2C(C(=O)[O-])=C(C[n+]3ccn4c(Br)ccc4c3C)CS[C@H]12)c1csc(N)n1 [Ex. 42, 7-β-[(Z)-2-(2-aminothiazol-4-yl)-2-ethoxyiminoacetamido]-3-(6-bromo-1-methylpyrrolo[1,2-a]pyrazinium-2-yl)methyl-3-cephem-4-carboxylate] | 0.39 µg/mL (≈ 0.629 µM) | 0.39 µg/mL (≈ 0.629 µM) | 1.56 µg/mL (≈ 2.51 µM) | 25 µg/mL (≈ 40.3 µM) | 1.56 µg/mL (≈ 2.51 µM) | 3.13 µg/mL (≈ 5.04 µM) | 0.1 µg/mL (≈ 0.161 µM) | 0.05 µg/mL (≈ 0.0806 µM) | 0.78 µg/mL (≈ 1.26 µM) | 0.2 µg/mL (≈ 0.322 µM) | 0.05 µg/mL (≈ 0.0806 µM) | 0.025 µg/mL (≈ 0.0403 µM) | 0.2 µg/mL (≈ 0.322 µM) | 0.2 µg/mL (≈ 0.322 µM) | 6.25 µg/mL (≈ 10.1 µM) | 3.13 µg/mL (≈ 5.04 µM) | 25 µg/mL (≈ 40.3 µM) | 0.025 µg/mL (≈ 0.0403 µM) | 0.05 µg/mL (≈ 0.0806 µM) | 0.2 µg/mL (≈ 0.322 µM)
Nc1nc(C(=NOCF)C(=O)NC2C(=O)N3C(C(=O)[O-])=C(C[n+]4ccn5cccc5c4)CSC23)cs1 (stereo not drawn) [Ex. 6, 7-β-[(Z)-2-(2-aminothiazol-4-yl)-2-fluoromethoxyiminoacetamido]-3-(pyrrolo[1,2-a]pyrazinium-2-yl)methyl-3-cephem-4-carboxylate] | 0.2 µg/mL (≈ 0.376 µM) | 0.2 µg/mL (≈ 0.376 µM) | 0.39 µg/mL (≈ 0.734 µM) | 25 µg/mL (≈ 47 µM) | 1.56 µg/mL (≈ 2.93 µM) | 0.78 µg/mL (≈ 1.47 µM) | 0.1 µg/mL (≈ 0.188 µM) | 0.012 µg/mL (≈ 0.0226 µM) | 0.05 µg/mL (≈ 0.0941 µM) | 0.012 µg/mL (≈ 0.0226 µM) | ≤ 0.006 µg/mL | ≤ 0.006 µg/mL | 0.012 µg/mL (≈ 0.0226 µM) | ≤ 0.006 µg/mL | 0.39 µg/mL (≈ 0.734 µM) | 0.2 µg/mL (≈ 0.376 µM) | 3.13 µg/mL (≈ 5.89 µM) | ≤ 0.006 µg/mL | ≤ 0.006 µg/mL | 0.012 µg/mL (≈ 0.0226 µM)
CO/N=C(\C(=O)N[C@@H]1C(=O)N2C(C(=O)[O-])=C(C[n+]3ccn4cccc4c3C)CS[C@H]12)c1nc(N)sc1Cl [Ex. 56, 7-β-[(Z)-2-(2-amino-5-chlorothiazol-4-yl)-2-methoxyiminoacetamido]-3-(1-methylpyrrolo[1,2-a]-pyrazinium-2-yl)methyl-3-cephem-4-carboxylate] | 0.2 µg/mL (≈ 0.356 µM) | 0.05 µg/mL (≈ 0.089 µM) | 0.39 µg/mL (≈ 0.694 µM) | 3.13 µg/mL (≈ 5.57 µM) | 0.78 µg/mL (≈ 1.39 µM) | 0.78 µg/mL (≈ 1.39 µM) | 0.1 µg/mL (≈ 0.178 µM) | 0.1 µg/mL (≈ 0.178 µM) | 0.78 µg/mL (≈ 1.39 µM) | 0.2 µg/mL (≈ 0.356 µM) | 0.05 µg/mL (≈ 0.089 µM) | 0.05 µg/mL (≈ 0.089 µM) | 0.1 µg/mL (≈ 0.178 µM) | 0.39 µg/mL (≈ 0.694 µM) | 1.56 µg/mL (≈ 2.78 µM) | 0.78 µg/mL (≈ 1.39 µM) | 3.13 µg/mL (≈ 5.57 µM) | 0.012 µg/mL (≈ 0.0214 µM) | 0.012 µg/mL (≈ 0.0214 µM) | 0.2 µg/mL (≈ 0.356 µM)
CCON=C(C(=O)NC1C(=O)N2C(C(=O)[O-])=C(C[n+]3ccn4c(Cl)ccc4c3)CSC12)c1csc(N)n1 (stereo not drawn) [Ex. 12, 7-β-[(Z)-2-(2-aminothiazol-4-yl)-2-ethoxyiminoacetamido]-3-(6-chloropyrrolo[1,2-a]pyrazinium-2-yl)methyl-3-cephem-4-carboxylate] | 0.1 µg/mL (≈ 0.178 µM) | 0.2 µg/mL (≈ 0.356 µM) | 0.39 µg/mL (≈ 0.694 µM) | 12.5 µg/mL (≈ 22.2 µM) | 0.78 µg/mL (≈ 1.39 µM) | 0.78 µg/mL (≈ 1.39 µM) | 0.05 µg/mL (≈ 0.089 µM) | 0.025 µg/mL (≈ 0.0445 µM) | 0.39 µg/mL (≈ 0.694 µM) | 0.05 µg/mL (≈ 0.089 µM) | 0.012 µg/mL (≈ 0.0214 µM) | 0.012 µg/mL (≈ 0.0214 µM) | 0.025 µg/mL (≈ 0.0445 µM) | 0.025 µg/mL (≈ 0.0445 µM) | 1.56 µg/mL (≈ 2.78 µM) | 0.39 µg/mL (≈ 0.694 µM) | 6.25 µg/mL (≈ 11.1 µM) | 0.012 µg/mL (≈ 0.0214 µM) | 0.025 µg/mL (≈ 0.0445 µM) | 0.025 µg/mL (≈ 0.0445 µM)
CO/N=C(\C(=O)N[C@@H]1C(=O)N2C(C(=O)[O-])=C(C[n+]3ccn4cccc4c3)CS[C@H]12)c1nsc(N)n1 [Ex. 48, 7-β-[(Z)-2-(5-amino-1,2,4-thiadiazol-3-yl)-2-methoxyiminoacetamido]-3-(pyrrolo [1,2-a]pyrazinium-2-yl)methyl-3-cephem-4-carboxylate] | 0.2 µg/mL (≈ 0.389 µM) | 0.39 µg/mL (≈ 0.758 µM) | 0.78 µg/mL (≈ 1.52 µM) | 6.25 µg/mL (≈ 12.1 µM) | 0.78 µg/mL (≈ 1.52 µM) | 0.78 µg/mL (≈ 1.52 µM) | 0.1 µg/mL (≈ 0.194 µM) | 0.012 µg/mL (≈ 0.0233 µM) | 0.025 µg/mL (≈ 0.0486 µM) | 0.012 µg/mL (≈ 0.0233 µM) | 0.012 µg/mL (≈ 0.0233 µM) | 0.025 µg/mL (≈ 0.0486 µM) | 0.025 µg/mL (≈ 0.0486 µM) | 0.05 µg/mL (≈ 0.0972 µM) | 0.39 µg/mL (≈ 0.758 µM) | 0.1 µg/mL (≈ 0.194 µM) | 0.78 µg/mL (≈ 1.52 µM) | 0.012 µg/mL (≈ 0.0233 µM) | ≤ 0.006 µg/mL | 0.025 µg/mL (≈ 0.0486 µM)
